Patent US20150328329A1, “LIGANDS THAT TARGET HCV-E2 BINDING SITES ON CD81 AND THERAPEUTIC METHODS USING THEM” (American University of Cairo, priority 2012, published 2015)

Assays:
recombinant CD81-LEL = target: T1, recombinant CD81-LEL (Homo sapiens, UniProt P60033); test: Dual polarization interferometry (DPI) binding of ligands to immobilized recombinant CD81-LEL; settings: for DPI Radians: Table A; for DPI Radians / DPI Response (Radians), ligand added to CD81 protein: ligand 500 μM in PBS, 2.5% DMSO; for DPI Response (Radians), ligand added to CD81 protein: Table B and b111; for DPI Binding Response (Radians), molecule added alone to CD81: Table D, single molecule added to CD81
T1 construct: the large extracellular loop of CD81 (CD81-LEL); GST; His; Shoshana Levy Lab, Stanford (gift)
T1 sequence (P60033 113-201 limits assumed): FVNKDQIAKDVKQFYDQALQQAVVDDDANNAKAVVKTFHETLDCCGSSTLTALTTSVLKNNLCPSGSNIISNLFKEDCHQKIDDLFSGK
Protocol: DPI analyses were performed using an AnaLight 4D workstation (Farfield Group, Manchester UK). The recombinant CD81-LEL was immobilized onto a Thiol AnaChip using Sulfo-GMBS as a cross-linker in PBS running buffer. Non-specific sites were blocked with digested casein. TRIS was used to cap the cross-linker, blocking any additional amines from covalently binding to the cross-linker on the chip surface. Ligands were prepared as a 20 mM stock solutions in DMSO. Each ligand was diluted to a final concentration of 500 μM in PBS just prior to injection (final DMSO concentration was 2.5%). PBS and DMSO mixed in the same ratio were used as a blank. Data collection and analysis were performed using the AnaLight Resolver.
Six of the more interesting ligand candidates being considered for use in creating a ligand conjugate (three calculated to bind to Site 1 and three calculated to bind to Site 2) were further tested to confirm binding using a second experimental technique, dual polarization interferometry. The results, shown in FIG. 6, confirmed that all six ligands bound to the protein. The relative rank in strength of binding of the Site 1 and 2 ligands, as determined by DPI, were also similar to the ranking obtained by SPR or calculated by AutoDock for the majority of the ligands. […] One reason for this observed difference in the DPI response may relate to conformational changes in the protein that occur when the small molecules bind. The change in radians measured using DPI when a ligand binds to a protein is known to result from a combination of two effects: 1) the resulting increase in mass/volume when the ligand binds to the protein on the surface of the chip and 2) a conformational change in the protein induced by the binding of the ligand. Molecules binding in the deeper cavity would be expected to have more and stronger contacts with the protein than ligands sitting exposed to solvent in shallow cavities or surface binding sites. […]

[1] = target: T2, recombinant CD81-LEL (GST tag) (Homo sapiens, UniProt P60033); test: Surface plasmon resonance (Biacore T200) binding of ligands to immobilized recombinant CD81-LEL; settings: Table A; ligand 600 μM in PBS-0.05% Tween-80; CD81-LEL-GST on CM5 chip
T2 construct: the large extracellular loop of CD81 (CD81-LEL); gift of Dr. Shoshana Levy, Stanford University
T2 sequence (P60033 113-201 limits assumed): T1 sequence (P60033 113-201 limits assumed)
Protocol: SPR analysis was performed using a Biacore T200 workstation (GE Healthcare, NJ, USA). A recombinant form of the CD81-LEL protein with a GST tag (generously provided by Dr. Shoshana Levy, Stanford University) was used to confirm, using an established experimental technique, the binding of several ligands to the protein. Briefly, 10 μM CD81-LEL-GST diluted into 10 mM Na-Acetate buffer pH 4.5 was immobilized for 15 min at a flow speed of 5 μl/min onto a CM5 sensor chip using amine-coupling (EDC-NHS). Approximately 20,000 RU of protein were immobilized on the chip. The ligands were prepared as 600 μM solutions in PBS-0.05% Tween-80 (the running buffer) and they were introduced to the protein using a pre-programmed 3 minute association and 1 minute dissociation interval.
The binding affinity of the most tightly bound ligand in the group selected for ligand conjugate design (Ligand 1) was estimated using data collected from a series of SPR binding experiments conducted at different ligand concentrations. To obtain the kinetic and affinity data needed to estimate the Kd, the original ligand was diluted serially with running buffer to produce seven different ligand concentrations: 1024 μM, […], 256 μM, 128 μM, 64 μM, 32 μM and 0 μM. Data were fitted using a monovalent binding model.
A total of 36 ligands were tested experimentally using surface Plasmon resonance (on a Biacore T200 instrument) to identify which of the molecules calculated to bind to Sites 1 and 2 on CD81 actually bind to a recombinant form of the protein (CD81-LEL). Twenty-six of the molecules provided a positive change in response units (RU) upon introduction to a chip containing the immobilized protein (Table A), indicating the ligands bound to the protein. The measured responses for the ligands that bound varied from 2.3 to 78.4 RU. Those ligands providing the largest responses tended to be molecules that were calculated to bind more deeply inside cavities in Site 1 (ligands 30930, 98026, 7436, 5069), Site 2 (ligands 127947, 38743) or Site 4 (ligands 78623, 16631).
Experimental analysis of ligand binding to recombinant CD81 LEL. Forty ligands calculated by AutoDock to bind to sites 1 and 2 on CD81-LEL were tested experimentally using surface Plasmon resonance as described in the Materials and Methods section. Ligand code numbers are those assigned by the National Cancer Institute. […] Because the binding experiments were performed by passing the same concentration of each ligand sequentially across the same protein coated chip using both techniques, the magnitude of the responses can be used to provide an approximate ranking of binding strength.

[2] = target: T3, native CD81 on Raji cells (Homo sapiens, UniProt P60033); test: Competition assay: inhibition of FITC-labeled JS-81 anti-CD81 antibody binding to native CD81 on live Raji cells (flow cytometry); type: cell-based
T3 construct: endogenous in cells; host or cells: Raji (human B cell line)
T3 sequence (P60033 1-236): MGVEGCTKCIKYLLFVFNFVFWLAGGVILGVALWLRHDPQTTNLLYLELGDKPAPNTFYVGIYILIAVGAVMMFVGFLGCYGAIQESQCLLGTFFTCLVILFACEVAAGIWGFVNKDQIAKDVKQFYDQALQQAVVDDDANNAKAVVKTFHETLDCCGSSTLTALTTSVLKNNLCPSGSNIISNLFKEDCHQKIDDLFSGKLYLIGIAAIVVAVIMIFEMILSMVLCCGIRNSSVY
From the text: A subset of these ligands and some of those listed in the patent have been tested to identify those ligands that bind to the correct region of the CD81 protein and for binding to native CD81 on living cells (a Raji cell line). This assay tests three concentrations of the ligand to determine if the ligand is capable of inhibiting the binding of an antibody called JS-81. This antibody is known to bind to the region of the CD81 protein we have targeted. If the ligand decreases JS-81 binding as you increase the concentration of the ligand, it is 1) binding to native CD81 on the Raji cells and 2) it is binding to the correct region of the protein.
For antibody neutralization assay Raji cells were used, a human B cell line that expressed high amounts of CD81 on the surface (data not shown). Cells were grown in RPMI medium (10% FCS, 1% penicillin/streptomycin, 1% L-glutamine, 1% non-essential amino acids, 1% sodium pyruvate, pH 7.4, at 37° C. with 5% CO2). 2×10^5 cells were incubated with or without different concentrations (50 μM, 100 μM, 400 μM and 1 mM) of indicated inhibitor for 20 min at room temperature, subsequently 1 ul (16 ng/μl) of FITC-labeled anti CD81 antibody (BD Pharmingen, 551108) was added to the cells and incubated for 20 min (antibody titration was performed to obtain a working dilution range, data not shown). Cells were washed and analyzed by flow cytometry using fluorescence-activated cell sorting (FACS) (BD FACSCalibur, software: Cell Quest Pro). Mean Fluorescence Intensity MFI was calculated using Flowjo software (TreesStar, www.flowjo.com).

HCV E2 binding to CD81 = target: T4, HCV E2 binding to CD81 (Homo sapiens, UniProt P60033); test: DPI assay of ligands blocking HCV E2 protein binding to CD81; settings: Table D; E2 Protein alone gives 4.1402; reduced response = blocking
T4 sequence (P60033 113-201 limits assumed): T1 sequence (P60033 113-201 limits assumed)
Protocol: A subset of the ligands identified to bind to CD81 have been tested using Dual Polarization Interferometry (DPI) to determine if the ligands themselves are effective in blocking E2 binding to CD81. The experiments are conducted by first immobilizing one of the proteins (HCV E2 or CD81) on the chip used to perform the assay. The other protein is then introduced to the chip and the amount of binding is measured. This protein is then washed off and the protein and one of the ligands are then introduced to the chip. If the ligand blocks/interferes with the binding of the two proteins, the DPI response (measured in Radians) is reduced compared to when the protein is added alone. After the measurement is made, the protein and ligand are washed off and the next combination of the protein and a different ligand are added to the chip and the DPI response is measured. Similar experiments can be performed in which the protein is mixed with two or more ligands to see if they have a greater effect when combined.
Experiments have been conducted with either CD81 or HCV E2 immobilized on the chip. Six ligands have been tested to date.

SMILES | DPI Radians (recombinant CD81-LEL) | SPR Response Units [1] | Inhibition of JS-81 Binding (%) ([2]; 50 μM ligand) | Inhibition of JS-81 Binding (%) ([2]; 100 μM ligand) | Inhibition of JS-81 Binding (%) ([2]; 400 μM ligand) | other results
O=C(O)Cn1cnc2c(=S)nc[nH]c21 [Ligand 36914] | 0.1448 Radians |  |  |  |  | 
N=C(N)N/N=C/c1c(Cl)cccc1Cl [Ligand 68982] |  | 41.2 RU | 0% | 13% | 15% | 
O=C(O)CCC1(c2ccccc2)NC(=O)NC1=O (stereo not shown) [Ligand 38743] |  | 30.6 RU |  |  |  | DPI Response (Radians), ligand added to CD81 protein (recombinant CD81-LEL): 0.8593 Radians
O=C(Cn1ccc(=O)[nH]c1=O)Nc1ccc(C(=O)O)c(O)c1 [Ligand 93033] |  | 16.9 RU | 0% | 0% | 16% | DPI Response (Radians), ligand added to CD81 protein (recombinant CD81-LEL): 0.7245 Radians; DPI Binding Response (Radians), molecule added alone to CD81 (recombinant CD81-LEL): 0.7245 Radians; DPI Binding Response (Radians), E2 Protein added to CD81 together with ligand(s) (HCV E2 binding to CD81): 0.2546 Radians
CCCNC1=C(C)C(=O)C2=C(C1=O)C(COC(N)=O)C1(OC)C3NC3CN21 (stereo not shown) [Ligand 123115] |  | 34.5 RU |  |  |  | 
O=C(O)/C=C\c1cc2c(cc1[N+](=O)[O-])OCO2 [Ligand 21034] |  | 21.1 RU |  |  |  | 
Cn1c(=O)c2[nH]c(CNc3ccc(C(=O)O)cc3)nc2n(C)c1=O [Ligand 81750] | 0.4360 Radians |  |  |  |  | 
O=C(O)c1cc2cc(OCc3ccccc3)ccc2[nH]1 [Ligand 30930] |  | 67.7 RU | 0% | 0% | 14% | DPI Binding Response (Radians), molecule added alone to CD81 (recombinant CD81-LEL): 1.102 Radians; DPI Binding Response (Radians), E2 Protein added to CD81 together with ligand(s) (HCV E2 binding to CD81): 2.5262 Radians

Continued, in another order:

DPI Radians (recombinant CD81-LEL) | SMILES | SPR Response Units [1] | Inhibition of JS-81 Binding (%) ([2]; 50 μM ligand) | Inhibition of JS-81 Binding (%) ([2]; 100 μM ligand) | Inhibition of JS-81 Binding (%) ([2]; 400 μM ligand) | other results
0.1909 Radians | O=C(O)/C=C\C(=O)Nc1nccs1 [Ligand 80807] |  |  |  |  | 
0.2700 Radians | O=C(O)c1ccccc1C(=O)Nc1ccccc1[N+](=O)[O-] [Ligand 41066] |  |  |  |  | 
